Data published in PubChem BioAssay AID2060623 (Molecular Pharmacology Branch, DTP, NCI, 2025).

Tested on: 227483-062-R1-J1-PDC complex spheroids with HUVEC/MSC, viability
Assay: Anticancer human tumor 227483-062-R1-J1-PDC patient-derived pancreatic carcinoma cell line growth inhibition [CLK]
Details: for IC50: curve of first compound; for viability, T/C: stronger effect = lower value
Procedure, shortened: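 Patient-derived tumor cells grown as complex spheroids with HUVEC endothelial cells and mesenchymal stem cells, treated with drug combinations. Concentrations descend in half-log steps from near clinical Cmax, or from 10 microM if Cmax unknown.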
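Note: spheroids exposed to compounds for seven days before readout.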
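Throughout, for viability, T/C: percent of DMSO vehicle control luminescence as 100% viability.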

CC1(C)CCC(CN2CCN(c3ccc(C(=O)NS(=O)(=O)c4ccc(NCC5CCOCC5)c([N+](=O)[O-])c4)c(Oc4cnc5[nH]ccc5c4)c3)CC2)=C(c2ccc(Cl)cc2)C1 + CNC(=O)c1ccc(Nc2nc(OC3CCCC3)c3c(-c4ccc5nc(C)oc5c4)c[nH]c3n2)c(OC)c1
IC50 (second compound 0.0316 µM): 5.96 µM
IC50 (second compound 0.1 µM): 5.53 µM
IC50 (second compound 0.316 µM): 5.27 µM
IC50 (second compound 1 µM): 4.51 µM
IC50 (second compound 3.16 µM): 3.45 µM
IC50 (second compound 10 µM): < 0.0316 µM
viability, T/C (second compound 0.0316 µM, first compound 0.0316 µM): 96.7%
viability, T/C (second compound 0.0316 µM, first compound 0.1 µM): 101%
viability, T/C (second compound 0.0316 µM, first compound 0.316 µM): 100%
viability, T/C (second compound 0.0316 µM, first compound 1 µM): 121%
viability, T/C (second compound 0.0316 µM, first compound 3.16 µM): 101%
viability, T/C (second compound 0.0316 µM, first compound 10 µM): 8.36%
viability, T/C (second compound 0.1 µM, first compound 0.0316 µM): 90.2%
viability, T/C (second compound 0.1 µM, first compound 0.1 µM): 93.6%
viability, T/C (second compound 0.1 µM, first compound 0.316 µM): 87.7%
viability, T/C (second compound 0.1 µM, first compound 1 µM): 85.9%
viability, T/C (second compound 0.1 µM, first compound 3.16 µM): 87.8%
viability, T/C (second compound 0.1 µM, first compound 10 µM): 9.86%
viability, T/C (second compound 0.316 µM, first compound 0.0316 µM): 100%
viability, T/C (second compound 0.316 µM, first compound 0.1 µM): 91.2%
viability, T/C (second compound 0.316 µM, first compound 0.316 µM): 78.7%
viability, T/C (second compound 0.316 µM, first compound 1 µM): 88.5%
viability, T/C (second compound 0.316 µM, first compound 3.16 µM): 84.6%
viability, T/C (second compound 0.316 µM, first compound 10 µM): 6.46%
viability, T/C (second compound 1 µM, first compound 0.0316 µM): 70.6%
viability, T/C (second compound 1 µM, first compound 0.1 µM): 67.2%
viability, T/C (second compound 1 µM, first compound 0.316 µM): 73.1%
viability, T/C (second compound 1 µM, first compound 1 µM): 85.3%
viability, T/C (second compound 1 µM, first compound 3.16 µM): 67.2%
viability, T/C (second compound 1 µM, first compound 10 µM): 9.18%
viability, T/C (second compound 3.16 µM, first compound 0.0316 µM): 50.3%
viability, T/C (second compound 3.16 µM, first compound 0.1 µM): 63.3%
viability, T/C (second compound 3.16 µM, first compound 0.316 µM): 55.3%
viability, T/C (second compound 3.16 µM, first compound 1 µM): 57.6%
viability, T/C (second compound 3.16 µM, first compound 3.16 µM): 53.3%
viability, T/C (second compound 3.16 µM, first compound 10 µM): 7.8%
viability, T/C (second compound 10 µM, first compound 0.0316 µM): 48%
viability, T/C (second compound 10 µM, first compound 0.1 µM): 45%
viability, T/C (second compound 10 µM, first compound 0.316 µM): 51.7%
viability, T/C (second compound 10 µM, first compound 1 µM): 46.3%
viability, T/C (second compound 10 µM, first compound 3.16 µM): 44.1%
viability, T/C (second compound 10 µM, first compound 10 µM): 9.45%

NC(=O)C(=Cn1cnc(-c2cc(C(F)(F)F)cc(C(F)(F)F)c2)n1)c1cncnc1 + CNC(=O)c1ccc(Nc2nc(OC3CCCC3)c3c(-c4ccc5nc(C)oc5c4)c[nH]c3n2)c(OC)c1
IC50 (second compound 0.0316 µM): 0.379 µM
IC50 (second compound 0.1 µM): 0.332 µM
IC50 (second compound 0.316 µM): 0.192 µM
IC50 (second compound 1 µM): 0.0318 µM
IC50 (second compound 3.16 µM): < 0.00949 µM
IC50 (second compound 10 µM): < 0.00949 µM
viability, T/C (second compound 0.0316 µM, first compound 0.00949 µM): 73.6%
viability, T/C (second compound 0.0316 µM, first compound 0.03 µM): 81.8%
viability, T/C (second compound 0.0316 µM, first compound 0.0949 µM): 73.2%
viability, T/C (second compound 0.0316 µM, first compound 0.3 µM): 53.4%
viability, T/C (second compound 0.0316 µM, first compound 0.949 µM): 29.8%
viability, T/C (second compound 0.0316 µM, first compound 3 µM): 9.82%
viability, T/C (second compound 0.1 µM, first compound 0.00949 µM): 86.3%
viability, T/C (second compound 0.1 µM, first compound 0.03 µM): 77.2%
viability, T/C (second compound 0.1 µM, first compound 0.0949 µM): 62.4%
viability, T/C (second compound 0.1 µM, first compound 0.3 µM): 60.7%
viability, T/C (second compound 0.1 µM, first compound 0.949 µM): 24.6%
viability, T/C (second compound 0.1 µM, first compound 3 µM): 5.03%
viability, T/C (second compound 0.316 µM, first compound 0.00949 µM): 61.4%
viability, T/C (second compound 0.316 µM, first compound 0.03 µM): 80.7%
viability, T/C (second compound 0.316 µM, first compound 0.0949 µM): 61.2%
viability, T/C (second compound 0.316 µM, first compound 0.3 µM): 41%
viability, T/C (second compound 0.316 µM, first compound 0.949 µM): 14.7%
viability, T/C (second compound 0.316 µM, first compound 3 µM): 2.56%
viability, T/C (second compound 1 µM, first compound 0.00949 µM): 46.4%
viability, T/C (second compound 1 µM, first compound 0.03 µM): 56.3%
viability, T/C (second compound 1 µM, first compound 0.0949 µM): 43.4%
viability, T/C (second compound 1 µM, first compound 0.3 µM): 25.6%
viability, T/C (second compound 1 µM, first compound 0.949 µM): 6.77%
viability, T/C (second compound 1 µM, first compound 3 µM): 2%
viability, T/C (second compound 3.16 µM, first compound 0.00949 µM): 43%
viability, T/C (second compound 3.16 µM, first compound 0.03 µM): 35.8%
viability, T/C (second compound 3.16 µM, first compound 0.0949 µM): 26.9%
viability, T/C (second compound 3.16 µM, first compound 0.3 µM): 11.7%
viability, T/C (second compound 3.16 µM, first compound 0.949 µM): 2.83%
viability, T/C (second compound 3.16 µM, first compound 3 µM): 2.08%
viability, T/C (second compound 10 µM, first compound 0.00949 µM): 40.6%
viability, T/C (second compound 10 µM, first compound 0.03 µM): 37.3%
viability, T/C (second compound 10 µM, first compound 0.0949 µM): 22%
viability, T/C (second compound 10 µM, first compound 0.3 µM): 7.23%
viability, T/C (second compound 10 µM, first compound 0.949 µM): 2.36%
viability, T/C (second compound 10 µM, first compound 3 µM): 1.41%
